For 34 compounds, pest or weed control and chromatographic logP results are on record in US8791143B2, “Anthranilic diamide derivatives having cyclic side-chains” (priority 2010, dated 2014).

Like-named read-outs stand apart in the source and are kept apart here.

In series [1] the test system is larvae of the mustard beetle (Phaedon cochleariae). Description: Phaedon test (PHAECO spray treatment). Particulars: Phaedon cochleariae, 168 h, read-out: activity in % (beetle larvae killed).
Series [2] in a line: log P by HPLC on reversed-phase columns (EEC Directive 79/831 Annex V.A8). Format: physicochemical.
For series [3], the system named is caterpillars of the armyworm (Spodoptera frugiperda). Put plainly: Spodoptera frugiperda test (SPODFR spray treatment). In kind it is in vivo. Particulars: Spodoptera frugiperda, 168 h, read-out: activity in % (caterpillars killed).
The mark [4] stands for this setting: reversed-phase C18 HPLC column, pH 2.7, HPLC reversed-phase C18, acidic range pH 2.7 (HCOOH), only or first value of the cell, read-out: log P.
Where [5] appears, read: application rate 100 g/ha, after 7 days.

Regarding `Cc1cc(Cl)cc(C(=O)NCc2ccc(F)cc2)c1NC(=O)c1cc(Cn2nnc(C(F)(F)F)n2)nn1-c1ncccc1Cl` [Example 99], the pest or weed control at 100 g/ha in series [1] and in series [3] was 100% each time. The compound also registered a chromatographic logP in series [2] (pH 2.7, log P) of 3.81.

`COc1ccccc1CNC(=O)c1cc(Cl)cc(C)c1NC(=O)c1cc(Cn2nnc(C(F)(F)F)n2)nn1-c1ncccc1Cl` [Example 100]: the pest or weed control at 100 g/ha in series [1] and in series [3] was 100% throughout. Moreover, the chromatographic logP in series [2] (pH 2.7, log P) was determined as 3.94.

In the case of `COc1cccc(CNC(=O)c2cc(Cl)cc(C)c2NC(=O)c2cc(Cn3nnc(C(F)(F)F)n3)nn2-c2ncccc2Cl)c1` [Example 101], the pest or weed control at 100 g/ha in series [1] and in series [3] was 100% throughout. The compound also gave a chromatographic logP in series [2] (pH 2.7, log P) of 3.81.

As to `COc1ccc(CNC(=O)c2cc(Cl)cc(C)c2NC(=O)c2cc(Cn3nnc(C(F)(F)F)n3)nn2-c2ncccc2Cl)cc1` [Example 102], the pest or weed control at 100 g/ha in series [1] and in series [3] was 100% in each case. Moreover, in series [2] (pH 2.7, log P), the chromatographic logP amounted to 3.76.

Turning to `Cc1cc(Cl)cc(C(=O)NCc2ccccc2OC(F)(F)F)c1NC(=O)c1cc(Cn2nnc(C(F)(F)F)n2)nn1-c1ncccc1Cl` [Example 103], the pest or weed control at 100 g/ha in series [1] and in series [3] (setting [5]) was 100% throughout. Moreover, in series [2] (setting [4]), the chromatographic logP was found to be 4.34.

For `Cc1cc(Cl)cc(C(=O)NCc2cccc(OC(F)(F)F)c2)c1NC(=O)c1cc(Cn2nnc(C(F)(F)F)n2)nn1-c1ncccc1Cl` [Example 104], the pest or weed control at 100 g/ha in series [1] and in series [3] (setting [5]) was 100% throughout. In addition, the chromatographic logP in series [2] (setting [4]) is 4.36.

As for `Cc1cc(Cl)cc(C(=O)NCc2cccc(Cl)c2Cl)c1NC(=O)c1cc(Cn2nnc(C(F)(F)F)n2)nn1-c1ncccc1Cl` [Example 105], the pest or weed control at 100 g/ha in series [1] and in series [3] was 100% each time. Also, the chromatographic logP in series [2] (pH 2.7, log P) is 4.37.

On to `Cc1cc(Cl)cc(C(=O)NCc2cc(Cl)ccc2Cl)c1NC(=O)c1cc(Cn2nnc(C(F)(F)F)n2)nn1-c1ncccc1Cl` [Example 106], for which the pest or weed control at 100 g/ha in series [1] and in series [3] was 100% throughout. The compound further displayed a chromatographic logP in series [2] (pH 2.7, log P) of 4.39.

In the case of `Cc1cc(Cl)cc(C(=O)NCc2ccc(F)cc2F)c1NC(=O)c1cc(Cn2nnc(C(F)(F)F)n2)nn1-c1ncccc1Cl` [Example 107], the pest or weed control at 100 g/ha in series [1] and in series [3] was 100% each time. Besides, the chromatographic logP in series [2] (pH 2.7, log P) was found to be 3.9.

In the case of `Cc1cc(Cl)cc(C(=O)NCc2ccc(F)c(F)c2F)c1NC(=O)c1cc(Cn2nnc(C(F)(F)F)n2)nn1-c1ncccc1Cl` [Example 108], the pest or weed control at 100 g/ha in series [1] and in series [3] (setting [5]) was 100% in each case. For the same compound, in series [2] (setting [4]), the chromatographic logP is 4.01.

As to `Cc1cc(Cl)cc(C(=O)NCc2cc(F)cc(F)c2F)c1NC(=O)c1cc(Cn2nnc(C(F)(F)F)n2)nn1-c1ncccc1Cl` [Example 109], the pest or weed control at 100 g/ha in series [1] and in series [3] (setting [5]) was 100% in each case. Also, the chromatographic logP in series [2] (setting [4]) came out at 3.98.

With `Cc1cc(Cl)cc(C(=O)NC(C)c2cccc(Cl)c2)c1NC(=O)c1cc(Cn2nnc(C(F)(F)F)n2)nn1-c1ncccc1Cl` (stereo not drawn) [Example 110], the pest or weed control at 100 g/ha in series [1] and in series [3] was 100% in each case. The chromatographic logP in series [2] (pH 2.7, log P) is 4.31.

For the compound `Cc1cc(Cl)cc(C(=O)NC(C)c2ccc(Cl)cc2)c1NC(=O)c1cc(Cn2nnc(C(F)(F)F)n2)nn1-c1ncccc1Cl` (stereo not drawn) [Example 111], the pest or weed control at 100 g/ha in series [1] and in series [3] was 100% in each case. Moreover, the chromatographic logP in series [2] (pH 2.7, log P) worked out at 4.3.

For `Cc1ccccc1C(C)NC(=O)c1cc(Cl)cc(C)c1NC(=O)c1cc(Cn2nnc(C(F)(F)F)n2)nn1-c1ncccc1Cl` (stereo not drawn) [Example 112], the pest or weed control at 100 g/ha in series [1] and in series [3] was 100% in each case. The compound also gave a chromatographic logP in series [2] (pH 2.7, log P) of 4.2.

For `Cc1cccc(C(C)NC(=O)c2cc(Cl)cc(C)c2NC(=O)c2cc(Cn3nnc(C(F)(F)F)n3)nn2-c2ncccc2Cl)c1` (stereo not drawn) [Example 113], the pest or weed control at 100 g/ha in series [1] and in series [3] was 100% each time. The chromatographic logP in series [2] (pH 2.7, log P) is 4.28.

Turning to `Cc1ccc(C(C)NC(=O)c2cc(Cl)cc(C)c2NC(=O)c2cc(Cn3nnc(C(F)(F)F)n3)nn2-c2ncccc2Cl)cc1` (stereo not drawn) [Example 114], the pest or weed control at 100 g/ha in series [1] and in series [3] was 100% each time. For the same compound, in series [2] (pH 2.7, log P), the chromatographic logP is 4.24.

Turning to `Cc1cc(Cl)cc(C(=O)NC(C)c2ccc(C(C)(C)C)cc2)c1NC(=O)c1cc(Cn2nnc(C(F)(F)F)n2)nn1-c1ncccc1Cl` (stereo not drawn) [Example 115], the pest or weed control at 100 g/ha in series [1] and in series [3] (setting [5]) was 100% in each case. Further, in series [2] (setting [4]), the chromatographic logP amounted to 5.06.

For the compound `Cc1cc(Cl)cc(C(=O)NCc2cccc(Cl)c2)c1NC(=O)c1cc(Cn2nnc(C(F)(F)F)n2)nn1-c1ncccc1Cl` [Example 116], the pest or weed control at 100 g/ha in series [1] and in series [3] was 100% throughout. In addition, in series [2] (pH 2.7, log P), the chromatographic logP was determined as 4.1.

In the case of `Cc1cc(Cl)cc(C(=O)NC(C)c2ccc(OC(F)(F)F)cc2)c1NC(=O)c1cc(Cn2nnc(C(F)(F)F)n2)nn1-c1ncccc1Cl` (stereo not drawn) [Example 117], the pest or weed control at 100 g/ha in series [1] and in series [3] (setting [5]) was 100% each time. Further, the chromatographic logP in series [2] (setting [4]) was 4.52.

Take `Cc1cc(Cl)cc(C(=O)NCc2ccccc2C(F)(F)F)c1NC(=O)c1cc(Cn2nnc(C(F)(F)F)n2)nn1-c1ncccc1Cl` [Example 118]: the pest or weed control at 100 g/ha in series [1] and in series [3] (setting [5]) was 100% each time. In series [2] (setting [4]), the chromatographic logP was found to be 4.21.

In the case of `Cc1ccccc1CNC(=O)c1cc(Cl)cc(C)c1NC(=O)c1cc(Cn2nnc(C(F)(F)F)n2)nn1-c1ncccc1Cl` [Example 119], the pest or weed control at 100 g/ha in series [1] and in series [3] was 100% each time. In series [2] (pH 2.7, log P), this compound returned a chromatographic logP of 4.03.

Regarding `Cc1cc(Cl)cc(C(=O)NC(C)c2cccc(C(F)(F)F)c2)c1NC(=O)c1cc(Cn2nnc(C(F)(F)F)n2)nn1-c1ncccc1Cl` (stereo not drawn) [Example 120], the pest or weed control at 100 g/ha in series [1] and in series [3] (setting [5]) was 100% throughout. The chromatographic logP in series [2] (setting [4]) was 4.42.

In the case of `Cc1cc(Cl)cc(C(=O)NC(C)c2ccc(C(F)(F)F)cc2)c1NC(=O)c1cc(Cn2nnc(C(F)(F)F)n2)nn1-c1ncccc1Cl` (stereo not drawn) [Example 121], the pest or weed control at 100 g/ha in series [1] and in series [3] (setting [5]) was 100% each time. For the same compound, the chromatographic logP in series [2] (setting [4]) amounted to 4.32.

On to `Cc1cc(Cl)cc(C(=O)NC(C)c2ccc(F)cc2)c1NC(=O)c1cc(Cn2nnc(C(F)(F)F)n2)nn1-c1ncccc1Cl` (stereo not drawn) [Example 122], for which the pest or weed control at 100 g/ha in series [1] and in series [3] was 100% each time. The same compound showed a chromatographic logP in series [2] (pH 2.7, log P) of 4.

`Cc1cc(Cl)cc(C(=O)NC(C)c2ccccc2C(F)(F)F)c1NC(=O)c1cc(Cn2nnc(C(F)(F)F)n2)nn1-c1ncccc1Cl` (stereo not drawn) [Example 123]: the pest or weed control at 100 g/ha in series [1] and in series [3] (setting [5]) was 100% in each case. The chromatographic logP in series [2] (setting [4]) worked out at 4.35.

Turning to `Cc1cc(Cl)cc(C(=O)NC(C)c2cccc(Cl)c2Cl)c1NC(=O)c1cc(Cn2nnc(C(F)(F)F)n2)nn1-c1ncccc1Cl` (stereo not drawn) [Example 124], the pest or weed control at 100 g/ha in series [1] and in series [3] (setting [5]) was 100% in each case. Further, the chromatographic logP in series [2] (setting [4]) stood at 4.57.

For `Cc1cc(Cl)cc(C(=O)NC(C)c2ccc(Cl)cc2F)c1NC(=O)c1cc(Cn2nnc(C(F)(F)F)n2)nn1-c1ncccc1Cl` (stereo not drawn) [Example 125], the pest or weed control at 100 g/ha in series [1] and in series [3] (setting [5]) was 100% throughout. The chromatographic logP in series [2] (setting [4]) worked out at 4.42.

As to `Cc1cc(Cl)cc(C(=O)NCc2ccc(OC(F)(F)F)cc2)c1NC(=O)c1cc(Cn2nnc(C(F)(F)F)n2)nn1-c1ncccc1Cl` [Example 126], the pest or weed control at 100 g/ha in series [1] and in series [3] (setting [5]) was 100% in each case. The chromatographic logP in series [2] (setting [4]) is 4.46.

Take `COC(=O)c1ccc(CNC(=O)c2cc(Cl)cc(C)c2NC(=O)c2cc(Cn3nnc(C(F)(F)F)n3)nn2-c2ncccc2Cl)cc1` [Example 127]: the pest or weed control at 100 g/ha in series [1] and in series [3] (setting [5]) was 100% throughout. In addition, in series [2] (setting [4]), the chromatographic logP came to 3.68.

For the compound `Cc1cc(Cl)cc(C(=O)N[C@H](C)c2ccc([N+](=O)[O-])cc2)c1NC(=O)c1cc(Cn2nnc(C(F)(F)F)n2)nn1-c1ncccc1Cl` [Example 128], the pest or weed control at 100 g/ha in series [1] and in series [3] (setting [5]) was 100% each time. For the same compound, the chromatographic logP in series [2] (setting [4]) amounted to 3.85.

Turning to `Cc1cc(Cl)cc(C(=O)N[C@@H](C)c2ccc([N+](=O)[O-])cc2)c1NC(=O)c1cc(Cn2nnc(C(F)(F)F)n2)nn1-c1ncccc1Cl` [Example 129], the pest or weed control at 100 g/ha in series [1] and in series [3] (setting [5]) was 100% each time. Besides, the chromatographic logP in series [2] (setting [4]) came to 3.86.

`Cc1cc(Cl)cc(C(=O)NCc2ccccc2)c1NC(=O)c1cc(Cn2nc(C(F)(F)F)c(C(F)(F)F)n2)nn1-c1ncccc1Cl` [Example 134]: the pest or weed control at 100 g/ha in series [1] and in series [3] (setting [5]) was 100% each time. The chromatographic logP in series [2] (setting [4]) is 4.52.

With `Cc1cc(C#N)cc(C(=O)NCc2ccccc2)c1NC(=O)c1cc(Cn2nc(C(F)(F)F)c(C(F)(F)F)n2)nn1-c1ncccc1Cl` [Example 136], the pest or weed control at 100 g/ha in series [1] and in series [3] (setting [5]) was 100% throughout. Further, the chromatographic logP in series [2] (setting [4]) came to 4.15.

On to `Cc1cc(C#N)cc(C(=O)NCc2ccc(Cl)c(Cl)c2)c1NC(=O)c1cc(Cn2nnc(C(F)(F)F)n2)nn1-c1ccccc1Cl` [Example 137], for which the pest or weed control at 100 g/ha in series [1] and in series [3] (setting [5]) was 100% each time. For the same compound, the chromatographic logP in series [2] (setting [4]) turned out to be 3.99.
